{
  "source": "patent US9393314B2",
  "about": "“Meloxicam eye drops and preparation method and use thereof” (KANGYA OF NINGXIA PHARMACEUTICALS CO., LTD., priority 2013, dated 2016)",
  "system": "rabbit eyes (aqueous humor protein concentration)",
  "assay": "Rabbit eye anterior chamber puncture test",
  "assay_type": "in vivo",
  "method": "Thirty-six rabbits without ocular abnormalities were taken and randomly divided into six groups, with six rabbits in each group. The groups are respectively saline group, medium control group, positive control group of diclofenac sodium, 0.025%, 0.05% and 0.1% meloxicam eye drops groups. Then 0.05 mL drug solution was dropped into the rabbit eyes for experiment. The eyes were forced to be closed for 10 seconds; 45 minutes later, under local anesthesia with 0.2 mL of 1% tetracaine drops, puncturing was performed with 41/2 needle from the edge of the limbus to take 0.2 mL of primary aqueous humor; 90 minutes later, puncturing was performed again to take the secondary aqueous humor. Those two batches of aqueous humor were diluted 2-fold and 50-fold respectively. Then 0.05 mL of distilled water, aqueous humor dilution and protein standard solution were taken, 3 mL Coomassie brilliant blue staining solution was added thereto respectively, after 10 minutes of reaction, their absorbance values at 595 nm were measured, and the protein content was calculated according to the following formula: [formula]",
  "note": "Marks after values point to notes of the source that are not given here.",
  "data": [
    {"compound": "O=C(O)Cc1ccccc1Nc1c(Cl)cccc1Cl", "note": "[Diclofenac sodium]", "values": [
      {"measurement": "Protein concentration in aqueous humor, Primary", "setting": "0.05 ml/eye, puncture 45 minutes after dosing, x ± s, n 6", "value": "0.52 ± 0.19", "unit": "mg/mL"},
      {"measurement": "Protein concentration in aqueous humor, Secondary", "setting": "0.05 ml/eye, second puncture 90 minutes later, x ± s, n 6", "value": "18.05 ± 3.01**^ΔΔ mg/ml"},
      {"measurement": "inhibition of the increase in aqueous humor protein concentration caused by puncture of anterior chamber", "setting": "vs saline and medium control groups", "value": "significantly inhibit"}
    ]}
  ]
}
